# Measurements taken from patent US7723301B2, “Pharmaceutical compositions comprising an anti-teratogenic compound and applications of the same” (The Board of Trustees of the University of Arkansas, priority 2007, dated 2010).
# Assays:
# [1] = tested on: β-catenin; experiment: Sub-cellular localization of β-catenin in CEFs; format: cell-based, chicken; conditions: in the presence of Wnt3a, data not shown
# Description: CEFs or HEFs attached on cover slips were incubated with Wnt3a-conditioned medium including thalidomide or solvent or with control medium for five hours. β-catenin was detected by using a mouse anti-β-catenin antibody (1:500, BD Transduction Laboratories), an anti-mouse Cy3-coupled secondary antibody (Dianova) and fluorescence microscopy. Afterwards, a DAPI staining was performed as a control. Quantification was done by counting the nuclei with a clear fluorescent signal in relation to the number of DAPI-stained nuclei.
# [2] = tested on: primary limb bud cells (PLBCs); experiment: Cell death by trypan blue staining in PLBCs; format: cell-based, chicken
# Description: (§1) Primary limb bud cells (PLBCs) were isolated from 60 pooled wing and hindlimb buds of HH stages 23/24 embryos. Fibroblasts were gained from HH stage 34 chicken embryos or from 13.5 d.p.c. mouse embryos. Human embryonic fibroblasts were provided by Matthias Maass (2). Before adding reagents, all cell types were cultured for 16 hours in D-MEM (Gibco) plus 10% fetal calf serum (FCS) and 2% chicken serum. Treatment with thalidomide, phthalimide, recombinant human (rh) BMP4 (300 ng/ml; R&D Systems), juglone (5 μM; Sigma), recombinant mouse Noggin (30, 300, 1000 ng/ml in FIG. 4B; 300 ng/ml in FIGS. 4C and 6A), anti-human-DKK1 antibody (35, 350 and 1000 ng/ml in FIG. 4B; 350 ng/ml in FIGS. 4C and 6A), LiCl (3, 30, 60 mM in FIG. 4B; 30 mM in FIGS. 4C, 6A and 6C) and/or (2Z,3E)-6-Bromoindirubin-3-oxime (BIO, Gsk3-Inhibitor IX; 50, 500, 1000 nM in FIG. 4B; 500 nM in FIG. 6A; 50 and 500 nM in FIG. 6C; Calbiochem) were performed in Optimem1 (Invitrogen) plus 1% FCS. Unless otherwise noted, all treatments with thalidomide and rh-BMP4 and associated controls were done for six hours. Inhibitors were applied once at the beginning of incubation with the exception of LiCl that was added 150 minutes before harvesting the cells for further analyses. Pre-treatment with phenyl-N-t-butylnitrone (PBN; 2 mM; Sigma) was performed for one hour. Incubations with juglone were performed for two hours, if applicable, after a pre-treatment with PBN, Noggin, anti-Dkk1 antibody, LiCl or Gsk3-Inhibitor IX for one hour.
# (§2) Cell death in PLBCs, CEFs, MEFs and HEFs was detected by staining with trypan blue (0.1% (w/v) in PBS; Sigma) for 90 seconds. Cells were counted in a counting chamber to determine the ratio of dead to live cells.
# [3] = tested on: human embryonic fibroblasts (HEFs); experiment: Cell death by trypan blue staining in HEFs; format: cell-based
# Description: as §1, §2
# [4] = tested on: chicken embryos; experiment: Thalidomide-induced limb truncations and microphthalmia in chicken embryos; format: in vivo
# Description: Fertilized eggs were purchased from Deindl GmbH, Rietberg-Varensell. They were incubated at 38° C. in a humidified incubator, windowed after one day and staged according to Hamburger and Hamilton (HH stage). Racemic thalidomide (Celgene), thalidomide enantiomers or phthalimide (Sigma) were dissolved in DMSO at 5 mg/ml and further diluted in PBS. Embryos were exposed to drugs by dropping 15 μg-3 mg thalidomide or phthalimide per kg egg weight (about 1-200 μg per embryo) in 50 μl DMSO/PBS as a single dose at HH stages 0-13 onto the embryo. Thalidomide (50 μg) or phthalimide (50 μg) in 10 μl DMSO was injected into the extra-embryonic blood vessels of HH 19 stage embryos. […] Recombinant Noggin, Dkk1 specific goat IgG (R&D Systems) or serum of non-immunized goats (Sigma) was dissolved in 0.1% BSA/0.01% Fast Green/PBS. Noggin (10 or 100 ng), Dkk1 specific goat IgG (5 or 50 ng) or serum of non-immunized goats (50 ng) was applied to a single embryo at HH stages 17-19 by injecting a 10 μl solution through the extra-embryonic membranes.
# The morphology of the limbs was studied in specimens fixed in 5% trichloroacetic acid and stained for cartilage with alcian green as described (3).
# [5] = tested on: Bmp4 and Dkk1 expression in PLBCs; experiment: sqRT-PCR of Bmp4 and Dkk1 expression in PLBCs; format: cell-based, chicken; conditions: 10 μg/ml, six hours
# Description: as §1
# RNA isolation, semi-quantitative RT-PCRs and whole mount in situ hybridizations were performed according to standard protocols that are well known within the art. RNA was isolated using TRIZOL (Gibco BRL) followed by DNAseI digestion. First strand synthesis was carried out with the Expand RT System (Roche) according to the manufacturer's instructions. PCR amplification was carried out primers and conditions within the knowledge of a person having skill in the relevant art. Quantifications were performed using NIH Image 1.62.
# [6] = tested on: Bmp4 and Dkk1 expression in MEFs; experiment: sqRT-PCR of Bmp4 and Dkk1 expression in MEFs; format: cell-based, mouse; conditions: 10 μg/ml, six hours
# Description: as §1, with “Inhibitors were applied once at the beginning of incubation with the exception of LiCl that was added 150 minutes before harvesting the cells for further analyses. Pre-treatment with phenyl-N-t-butylnitrone (PBN; 2 mM; Sigma) was performed for one hour. Incubations with juglone were performed for two hours, if applicable, after a pre-treatment with PBN, Noggin, anti-Dkk1 antibody, LiCl or Gsk3-Inhibitor IX for one hour.” left out
# RNA isolation, semi-quantitative RT-PCRs and whole mount in situ hybridizations were performed according to standard protocols that are well known within the art. […] Quantifications were performed using NIH Image 1.62.
# [7] = tested on: Wnt/β-catenin signaling; experiment: TOPflash luciferase reporter assay in CEFs; format: cell-based, chicken; conditions: Wnt3a-conditioned medium, 24 hours
# Description: Plasmids with wild type (TOPflash) or mutated (FOPflash) LEF/TCF binding sites (5) upstream of a luciferase reporter gene were transiently transfected into CEFs using Lipofectamine (Invitrogen). Following transfection for 24 hours, the cells were exposed to Wnt3a-conditioned medium or to control medium (6) with or without thalidomide or recombinant human DKK1 (150 ng/ml, R&D Biosystems) for 24 hours prior to luciferase assay. Values were normalized for transfection efficiency by co-transfection with a pSV-β-galactosidase vector and for the number of living cells. Luciferase activity was measured using the Dual-Light System (Applied Biosystems).
# [8] = chicken, in vivo, 7 day of incubation
structure (smiles),measurement,setting,value
"O=C1CCC(N2C(=O)c3ccccc3C2=O)C(=O)N1 (racemic) [thalidomide, 2-(2,6-dioxo-3-piperidyl)isoindole-1,3-dione]",number of CEFs positive for nuclear β-catenin,[1],dramatic reduction
same,maximum of cell death in PLBCs,"[2]; 38.7 μM (10 μg/ml), six to eight hours",about 6 -fold above control
same,EC50,"[2]; Gallus gallus, 6 h, treated for six hours, read-out: EC50 for induction of PCD in PLBCs",5 µM
same,potential to induce PCD in HEFs,[3],very similar to that in chicken embryonic cells
same,EC50,"[3]; Homo sapiens, Fibroblast, 6 h, treated for six hours, read-out: EC50 for induction of apoptosis (PCD) in HEFs",8.9 µM
same,embryonic lethality in comparison to solvent controls,"[4]; 750 μg/kg egg weight, HH stages 4/5, first seven days",did not significantly increase embryonic lethality
same,EC50 for induction of limb and eye defects,[4]; applied at HH stages 4/5,50 μg/kg egg weight
same,dose inducing a maximum of limb truncations and microphthalmia,"[4]; chicken, in vivo",750 μg/kg egg weight
same,"other limb malformations (fusion at the level of the metacarpal cartilage, abducted legs), frequency in total","[4]; chicken, in vivo","observed, but at a much lower frequency (in total 4%, data not shown)."
same,embryos showing both limb abnormalities and microphthalmia,[4]; [8],about 5%
same,embryos with uni- or bilateral microphthalmia,[4]; [8],21%
same,effect of increasing the amount up to 3 mg/kg egg weight,[4]; in vivo,neither influenced the quality nor the quantity of limb truncations or microphthalmia
same,frequency of limb truncations and microphthalmia on application at later stages,[4]; in vivo,clearly reduced the frequency of limb truncations and microphthalmia
same,expression of Bmp4 and Dkk1 in PLBCs,[5],induced the expression
same,expression of Bmp4 and Dkk1 in MEFs,[6],not in MEFs
same,effect on Wnt3a-induced TOPflash activity,[7],clearly counteracted
